The text below walks through data of ChEMBL document CHEMBL1212723, “Bioactivity-guided mapping and navigation of chemical space” (Nat Chem Biol, 2009).

Active and inactive are the calls of the source. No cut-off for these calls is given here.

What is called Ki is the equilibrium dissociation constant of an inhibitor or competing ligand from its target. Lower therefore signals a stronger hold on the target. As a reminder, the EC50 is the concentration that produces a half-maximal response. A word on the IC50: it is the concentration that gives 50% inhibition.

In assay [1] the target is T1, Estrogen receptor (Homo sapiens, UniProt P03372).
T1 sequence (P03372 whole entry): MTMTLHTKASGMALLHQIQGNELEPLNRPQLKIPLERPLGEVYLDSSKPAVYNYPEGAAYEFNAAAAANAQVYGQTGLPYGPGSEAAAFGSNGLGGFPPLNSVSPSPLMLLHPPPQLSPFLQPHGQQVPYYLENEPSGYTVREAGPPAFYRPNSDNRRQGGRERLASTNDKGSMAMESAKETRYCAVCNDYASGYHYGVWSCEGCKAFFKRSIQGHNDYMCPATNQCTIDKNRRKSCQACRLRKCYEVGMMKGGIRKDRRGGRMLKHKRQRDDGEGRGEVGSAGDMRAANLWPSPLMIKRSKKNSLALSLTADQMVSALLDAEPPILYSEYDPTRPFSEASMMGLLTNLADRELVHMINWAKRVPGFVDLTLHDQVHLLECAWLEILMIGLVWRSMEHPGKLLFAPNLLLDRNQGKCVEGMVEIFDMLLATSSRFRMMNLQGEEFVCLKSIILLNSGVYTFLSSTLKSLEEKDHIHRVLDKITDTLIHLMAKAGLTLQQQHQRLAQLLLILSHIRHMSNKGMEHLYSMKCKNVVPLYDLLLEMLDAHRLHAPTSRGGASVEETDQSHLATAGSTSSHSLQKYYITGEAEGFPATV

The target in assay [2] is T2, Estrogen receptor beta (Homo sapiens, UniProt Q92731). Nature of the assay: Agonist activity at human ERbeta ligand binding domain expressed in Escherichia coli BL21(DE3) cells assessed as induction of coactivator 53-protein binding by fluorescence assay.
T2 sequence (Q92731 whole entry, the tested form may be a part): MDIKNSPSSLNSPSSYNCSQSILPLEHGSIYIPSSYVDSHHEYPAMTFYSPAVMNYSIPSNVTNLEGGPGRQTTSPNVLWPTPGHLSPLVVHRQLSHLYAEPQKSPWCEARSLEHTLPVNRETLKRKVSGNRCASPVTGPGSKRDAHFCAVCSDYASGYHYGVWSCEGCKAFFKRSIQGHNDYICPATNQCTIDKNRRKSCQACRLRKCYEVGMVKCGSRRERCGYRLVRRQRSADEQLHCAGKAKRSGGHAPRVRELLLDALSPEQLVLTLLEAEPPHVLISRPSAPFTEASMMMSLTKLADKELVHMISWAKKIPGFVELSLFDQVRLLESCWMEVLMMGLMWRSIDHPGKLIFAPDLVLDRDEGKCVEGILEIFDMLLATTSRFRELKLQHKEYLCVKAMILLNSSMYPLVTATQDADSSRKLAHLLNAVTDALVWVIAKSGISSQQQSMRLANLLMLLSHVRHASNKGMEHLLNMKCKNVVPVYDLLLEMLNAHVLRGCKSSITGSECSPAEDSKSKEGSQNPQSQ
The target in assay [3] is T1, Estrogen receptor. Nature of the assay: biochemical.
Description: Binding affinity to human ERalpha ligand binding domain expressed in Escherichia coli BL21(DE3) cells assessed as recruitment of fluorescently labeled nuclear coactivator Scr1 after 1 hr by fluorescence polarization assay
Assay [4] deals with T2, Estrogen receptor beta. Nature of the assay: Binding affinity to human ERbeta ligand binding domain expressed in Escherichia coli BL21(DE3) cells assessed as recruitment of fluorescently labeled nuclear coactivator Scr1 after 1 hr by fluorescence polarization assay.
Assay [5] deals with T2, Estrogen receptor beta. Nature of the assay: Antagonist activity at human ERbeta ligand binding domain expressed in Escherichia coli BL21(DE3) cells assessed as inhibition of coactivator 53-protein binding by fluorescence assay.
Assay [6] has as its target T3, Polyunsaturated fatty acid 5-lipoxygenase (Homo sapiens, UniProt P09917).
T3 sequence (P09917 whole entry): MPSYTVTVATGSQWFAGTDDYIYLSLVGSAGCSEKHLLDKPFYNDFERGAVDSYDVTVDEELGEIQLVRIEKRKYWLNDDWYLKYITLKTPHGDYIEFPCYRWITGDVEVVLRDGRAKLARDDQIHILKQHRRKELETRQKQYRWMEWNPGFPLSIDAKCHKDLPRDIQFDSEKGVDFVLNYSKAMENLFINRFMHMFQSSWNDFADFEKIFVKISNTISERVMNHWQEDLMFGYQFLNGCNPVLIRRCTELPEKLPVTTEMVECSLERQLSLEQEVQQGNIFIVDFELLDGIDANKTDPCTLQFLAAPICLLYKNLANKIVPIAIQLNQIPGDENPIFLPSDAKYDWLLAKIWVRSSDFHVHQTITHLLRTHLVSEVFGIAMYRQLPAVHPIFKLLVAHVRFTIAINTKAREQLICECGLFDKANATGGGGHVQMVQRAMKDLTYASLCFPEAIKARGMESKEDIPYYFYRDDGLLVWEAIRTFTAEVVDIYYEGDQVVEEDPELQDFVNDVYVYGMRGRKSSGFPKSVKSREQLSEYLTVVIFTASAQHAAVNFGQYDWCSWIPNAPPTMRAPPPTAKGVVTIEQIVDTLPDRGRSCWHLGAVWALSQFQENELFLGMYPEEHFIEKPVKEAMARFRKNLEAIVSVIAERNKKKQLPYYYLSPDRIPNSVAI
Nature of the assay: Inhibition of LOX5 in human whole blood assessed as inhibition of conversion of arachidonic acid to leukotriene. Type of assay: tissue-based.

The compound `O=C(N1CCc2cc(O)ccc2C1)C(F)(F)F` registered an inhibition constant (Ki) in assay [1] of 2 nM. Moreover, the result in assay [2] was Active. For the same compound, the EC50 in assay [3] was found to be 275 nM; in assay [4], 4.6 µM. `O=S(=O)(c1ccc2ccccc2c1)N1CCc2cc(O)ccc2[C@H]1c1ccc(OCCN2CCCC2)cc1`: the inhibition entry in assay [5] was “Active”.

On to `O=S(=O)(c1ccccc1)N1CCc2cc(O)ccc2[C@H]1c1ccc(OCCN2CCCC2)cc1`, for which the inhibition result in assay [5] was “Active”.

For `O=C(N1CCc2cc(O)ccc2[C@H]1c1ccc(OCCN2CCCC2)cc1)C(F)(F)F`, the inhibition entry in assay [5] was “Active”. On to `c1ccc(COc2ccc3ccccc3c2)cc1`, for which the IC50 in assay [6] was 9.5 µM. Consider `CN(C)CCNC(=O)c1ccc(COc2ccc3ccccc3c2)cc1`, for which, in assay [6], the IC50 turned out to be 3 µM.
